Test results published in US11464763B2, “Parasiticidal compositions comprising an isoxazoline active agent, methods and uses thereof” (BOEHRINGER INGELHEIM ANIMAL HEALTH USA INC., priority 2011, dated 2022).
Converted amounts (≈) assume the structure as drawn.

Key:
Ctenocephalides felis [1] = test: Spot-on efficacy at 1 mg/kg against Ctenocephalides felis fleas in cats protected from grooming (Example 8); type: in vivo; details: cats with protective neck collar
Protocol: In another study, the efficacy of four spot-on formulations comprising Cmpd. A dosed at 1 mg/kg body weight in different carrier vehicles against fleas in cats was studied. Five cats each were allocated to five Treatment Groups: Group 1—Untreated; Group 2—0.833% (w/v) Cmpd. A in dimethylsulfoxide (DMSO); Group 3—0.833% (w/v) Cmpd. A in DMI; Group 4—0.833% (w/v) Cmpd. A in Transcutol®; and Group 5—0.833% (w/v) Cmpd. A in DES. […] the corresponding spot-on formulation by application of the formulation directly on the skin in the midline of the neck, between the base of the skull and the shoulder blades in a single spot using a 1 mL syringe. Infestations with approximately 100 C. felis were conducted weekly on Days 7, 14, 21, 28 and 35. […]

Ctenocephalides felis [2] = test: Long lasting spot-on efficacy against Ctenocephalides felis fleas in cats (Example 9); type: in vivo
Protocol: The efficacy of spot-on compositions comprising Cmpd. A in DMI at different doses against Ctenocephalides felis fleas in cats was studied. Four treatment groups were formed with five cats per treatment group: Group 1—untreated control; Group 2—Compound A at 5.0% (w/v) in DMI to deliver a dose of 5 mg/kg; Group 3—Compound A at a concentration of 10.0% (w/v) in DMI to deliver a dose of 10 mg/kg; and Group 4—Compound A at a concentration of 15.0% (w/v) in DMI to deliver a dose of 15 mg/kg. Treatment was administered once on Day 0. The cats were each infested with approximately 100 C. felis fleas at each time point evaluated.
Cats in all treatment groups were infested on Days −1, 0 (approx. 12 h following treatment), 7, 28, 49, 70, 91, 105, 119 and 133. Cats were also infested on Days 126 and 140 (Treatment Groups 1 and 2); Days 147, 154, 155, 161, 168 and 175 (Treatment Groups 1, 3 and 4); Days 182, 189 and 197 (Treatment Groups 1 and 4). After each infestation, fleas were removed and counted approximately 48 hours (±3 hours) for most time points.

D. variabilis = test: Efficacious plasma concentration (EC90) against D. variabilis ticks in dogs (Example 13); type: in vivo, Dermacentor variabilis; details: for EC90 (concentration required to achieve 90% efficacy): plasma concentration
Protocol: Blood samples were collected from all dogs in the study on Days −6, 0 (at 4 h and 12 h), 1, 2, 9, 16, 23, 30, 36, 44, 51, 58, 64, 72, 79 and 86. Plasma samples were analyzed for the concentration of Compound A using an LC/MS/MS analytical method that was GLP validated for the purpose.
Plasma concentrations of Compound A from dogs in the studies of Examples 1 and 4 were determined according to the description in Example 1, and the plasma concentration versus % efficacy against A. americanum and D. variabilis were fit to a Sigmoidal Emax model. […] Since Compound A is systemically active, the lower concentration of the compound in the plasma required to achieve 90% efficacy from the topical compositions of the invention is surprising and unexpected.

O=C(CNC(=O)c1ccc(C2=NOC(c3cc(Cl)cc(C(F)(F)F)c3)(C(F)(F)F)C2)c2ccccc12)NCC(F)(F)F (stereo not drawn) [Compound A, 4-[5-[3-chloro-5-(trifluoromethyl)phenyl]-4,5-dihydro-5-(trifluoromethyl)-3-isoxazolyl]-N-[2-oxo-2-[(2,2,2-trifluoroethyl)amino]ethyl]-1-naphthalanecarboxamide]
% Reduction (Ctenocephalides felis [1]; Group 2: 0.833% in DMSO, Day 1): 43.16% | % Reduction (Ctenocephalides felis [1]; Group 2: 0.833% in DMSO, Day 2): 60.54% | % Reduction (Ctenocephalides felis [1]; Group 2: 0.833% in DMSO, Day 8): 98.48% | % Reduction (Ctenocephalides felis [1]; Group 2: 0.833% in DMSO, Day 15): 95.91% | % Reduction (Ctenocephalides felis [1]; Group 2: 0.833% in DMSO, Day 22): 97.90% | % Reduction (Ctenocephalides felis [1]; Group 2: 0.833% in DMSO, Day 29): 90.10% | % Reduction (Ctenocephalides felis [1]; Group 2: 0.833% in DMSO, Day 36): 74.49% | % Reduction (Ctenocephalides felis [1]; Group 3: 0.833% in DMI, Day 1): 37.90% | % Reduction (Ctenocephalides felis [1]; Group 3: 0.833% in DMI, Day 2): 88.97% | % Reduction (Ctenocephalides felis [1]; Group 3: 0.833% in DMI, Day 8): 99.62% | % Reduction (Ctenocephalides felis [1]; Group 3: 0.833% in DMI, Day 15): 99.32% | % Reduction (Ctenocephalides felis [1]; Group 3: 0.833% in DMI, Day 22): 98.80% | % Reduction (Ctenocephalides felis [1]; Group 3: 0.833% in DMI, Day 29): 92.66% | % Reduction (Ctenocephalides felis [1]; Group 3: 0.833% in DMI, Day 36): 79.54% | % Reduction (Ctenocephalides felis [1]; Group 4: 0.833% in Transcutol, Day 1): 76.32% | % Reduction (Ctenocephalides felis [1]; Group 4: 0.833% in Transcutol, Day 2): 83.12% | % Reduction (Ctenocephalides felis [1]; Group 4: 0.833% in Transcutol, Day 8): 98.95% | % Reduction (Ctenocephalides felis [1]; Group 4: 0.833% in Transcutol, Day 15): 99.01% | % Reduction (Ctenocephalides felis [1]; Group 4: 0.833% in Transcutol, Day 22): 96.19% | % Reduction (Ctenocephalides felis [1]; Group 4: 0.833% in Transcutol, Day 29): 95.41% | % Reduction (Ctenocephalides felis [1]; Group 4: 0.833% in Transcutol, Day 36): 86.61% | % Reduction (Ctenocephalides felis [1]; Group 5: 0.833% in DES, Day 1): 54.40% | % Reduction (Ctenocephalides felis [1]; Group 5: 0.833% in DES, Day 2): 82.77% | % Reduction (Ctenocephalides felis [1]; Group 5: 0.833% in DES, Day 8): 98.82% | % Reduction (Ctenocephalides felis [1]; Group 5: 0.833% in DES, Day 15): 99.26% | % Reduction (Ctenocephalides felis [1]; Group 5: 0.833% in DES, Day 22): 99.82% | % Reduction (Ctenocephalides felis [1]; Group 5: 0.833% in DES, Day 29): 92.43% | % Reduction (Ctenocephalides felis [1]; Group 5: 0.833% in DES, Day 36): 88.11% | efficacy against fleas (Ctenocephalides felis [2]; Group 2 (5 mg/kg), up to Day 121): 90% | % Reduction Fleas (Ctenocephalides felis [2]; Group 2: 5.0% in DMI, 5 mg/kg, Day 0 (12 hr)): 61.1% | % Reduction Fleas (Ctenocephalides felis [2]; Group 2: 5.0% in DMI, 5 mg/kg, Day 2): 100.0% | % Reduction Fleas (Ctenocephalides felis [2]; Group 2: 5.0% in DMI, 5 mg/kg, Day 9): 100.0% | % Reduction Fleas (Ctenocephalides felis [2]; Group 2: 5.0% in DMI, 5 mg/kg, Day 30): 100.0% | % Reduction Fleas (Ctenocephalides felis [2]; Group 2: 5.0% in DMI, 5 mg/kg, Day 51): 100.0% | % Reduction Fleas (Ctenocephalides felis [2]; Group 2: 5.0% in DMI, 5 mg/kg, Day 72): 100.0% | % Reduction Fleas (Ctenocephalides felis [2]; Group 2: 5.0% in DMI, 5 mg/kg, Day 93): 100.0% | % Reduction Fleas (Ctenocephalides felis [2]; Group 2: 5.0% in DMI, 5 mg/kg, Day 107): 100.0% | % Reduction Fleas (Ctenocephalides felis [2]; Group 2: 5.0% in DMI, 5 mg/kg, Day 121): 92.3% | % Reduction Fleas (Ctenocephalides felis [2]; Group 2: 5.0% in DMI, 5 mg/kg, Day 128): 89.1% | % Reduction Fleas (Ctenocephalides felis [2]; Group 2: 5.0% in DMI, 5 mg/kg, Day 135): 88.3% | % Reduction Fleas (Ctenocephalides felis [2]; Group 2: 5.0% in DMI, 5 mg/kg, Day 142): 80.0% | efficacy against fleas (Ctenocephalides felis [2]; Group 3 (10 mg/kg), up to Day 163): 90% | % Reduction Fleas (Ctenocephalides felis [2]; Group 3: 10.0% in DMI, 10 mg/kg, Day 0 (12 hr)): 95.4% | % Reduction Fleas (Ctenocephalides felis [2]; Group 3: 10.0% in DMI, 10 mg/kg, Day 2): 100.0% | % Reduction Fleas (Ctenocephalides felis [2]; Group 3: 10.0% in DMI, 10 mg/kg, Day 9): 100.0% | % Reduction Fleas (Ctenocephalides felis [2]; Group 3: 10.0% in DMI, 10 mg/kg, Day 30): 100.0% | % Reduction Fleas (Ctenocephalides felis [2]; Group 3: 10.0% in DMI, 10 mg/kg, Day 51): 100.0% | % Reduction Fleas (Ctenocephalides felis [2]; Group 3: 10.0% in DMI, 10 mg/kg, Day 72): 100.0% | % Reduction Fleas (Ctenocephalides felis [2]; Group 3: 10.0% in DMI, 10 mg/kg, Day 93): 100.0% | % Reduction Fleas (Ctenocephalides felis [2]; Group 3: 10.0% in DMI, 10 mg/kg, Day 107): 100.0% | % Reduction Fleas (Ctenocephalides felis [2]; Group 3: 10.0% in DMI, 10 mg/kg, Day 121): 100.0% | % Reduction Fleas (Ctenocephalides felis [2]; Group 3: 10.0% in DMI, 10 mg/kg, Day 135): 99.8% | % Reduction Fleas (Ctenocephalides felis [2]; Group 3: 10.0% in DMI, 10 mg/kg, Day 149): 99.5% | % Reduction Fleas (Ctenocephalides felis [2]; Group 3: 10.0% in DMI, 10 mg/kg, Day 155): 50.0% | % Reduction Fleas (Ctenocephalides felis [2]; Group 3: 10.0% in DMI, 10 mg/kg, Day 157): 98.1% | % Reduction Fleas (Ctenocephalides felis [2]; Group 3: 10.0% in DMI, 10 mg/kg, Day 163): 94.5% | % Reduction Fleas (Ctenocephalides felis [2]; Group 3: 10.0% in DMI, 10 mg/kg, Day 170): 87.8% | % Reduction Fleas (Ctenocephalides felis [2]; Group 3: 10.0% in DMI, 10 mg/kg, Day 177): 70.8% | efficacy against fleas (Ctenocephalides felis [2]; Group 4 (15 mg/kg), up to Day 191): 90% | % Reduction Fleas (Ctenocephalides felis [2]; Group 4: 15.0% in DMI, 15 mg/kg, Day 0 (12 hr)): 85.3% | % Reduction Fleas (Ctenocephalides felis [2]; Group 4: 15.0% in DMI, 15 mg/kg, Day 2): 100.0% | % Reduction Fleas (Ctenocephalides felis [2]; Group 4: 15.0% in DMI, 15 mg/kg, Day 9): 100.0% | % Reduction Fleas (Ctenocephalides felis [2]; Group 4: 15.0% in DMI, 15 mg/kg, Day 30): 100.0% | % Reduction Fleas (Ctenocephalides felis [2]; Group 4: 15.0% in DMI, 15 mg/kg, Day 51): 100.0% | % Reduction Fleas (Ctenocephalides felis [2]; Group 4: 15.0% in DMI, 15 mg/kg, Day 72): 100.0% | % Reduction Fleas (Ctenocephalides felis [2]; Group 4: 15.0% in DMI, 15 mg/kg, Day 93): 100.0% | % Reduction Fleas (Ctenocephalides felis [2]; Group 4: 15.0% in DMI, 15 mg/kg, Day 107): 100.0% | % Reduction Fleas (Ctenocephalides felis [2]; Group 4: 15.0% in DMI, 15 mg/kg, Day 121): 100.0% | % Reduction Fleas (Ctenocephalides felis [2]; Group 4: 15.0% in DMI, 15 mg/kg, Day 135): 100.0% | % Reduction Fleas (Ctenocephalides felis [2]; Group 4: 15.0% in DMI, 15 mg/kg, Day 149): 100.0% | % Reduction Fleas (Ctenocephalides felis [2]; Group 4: 15.0% in DMI, 15 mg/kg, Day 155): 78.0% | % Reduction Fleas (Ctenocephalides felis [2]; Group 4: 15.0% in DMI, 15 mg/kg, Day 157): 100.0% | % Reduction Fleas (Ctenocephalides felis [2]; Group 4: 15.0% in DMI, 15 mg/kg, Day 163): 100.0% | % Reduction Fleas (Ctenocephalides felis [2]; Group 4: 15.0% in DMI, 15 mg/kg, Day 170): 96.2% | % Reduction Fleas (Ctenocephalides felis [2]; Group 4: 15.0% in DMI, 15 mg/kg, Day 177): 94.8% | % Reduction Fleas (Ctenocephalides felis [2]; Group 4: 15.0% in DMI, 15 mg/kg, Day 184): 95.7% | % Reduction Fleas (Ctenocephalides felis [2]; Group 4: 15.0% in DMI, 15 mg/kg, Day 191): 90.6% | % Reduction Fleas (Ctenocephalides felis [2]; Group 4: 15.0% in DMI, 15 mg/kg, Day 199): 79.2% | concentration required to achieve 90% efficacy, lower than the concentration required from oral administration (D. variabilis; dogs, topical vs oral): ~36% | EC90 (concentration required to achieve 90% efficacy) (D. variabilis; dogs, topical compositions, Sigmoidal Emax model): 0.07 µg/mL (≈ 0.112 µM) | EC90 (concentration required to achieve 90% efficacy) (D. variabilis; oral dosage form): 0.11 µg/mL (≈ 0.176 µM)
